Like-named read-outs stand apart in the source and are kept apart here.
Key:
[1] = biological target: T1, ovine COX-1 (Ovis aries, UniProt P05979); test: COX-1 inhibition, ELISA kit; type: biochemical; settings: average of three determinations
T1 construct: purchased Cayman Chemical Item No. 560131
T1 sequence (P05979 25-600): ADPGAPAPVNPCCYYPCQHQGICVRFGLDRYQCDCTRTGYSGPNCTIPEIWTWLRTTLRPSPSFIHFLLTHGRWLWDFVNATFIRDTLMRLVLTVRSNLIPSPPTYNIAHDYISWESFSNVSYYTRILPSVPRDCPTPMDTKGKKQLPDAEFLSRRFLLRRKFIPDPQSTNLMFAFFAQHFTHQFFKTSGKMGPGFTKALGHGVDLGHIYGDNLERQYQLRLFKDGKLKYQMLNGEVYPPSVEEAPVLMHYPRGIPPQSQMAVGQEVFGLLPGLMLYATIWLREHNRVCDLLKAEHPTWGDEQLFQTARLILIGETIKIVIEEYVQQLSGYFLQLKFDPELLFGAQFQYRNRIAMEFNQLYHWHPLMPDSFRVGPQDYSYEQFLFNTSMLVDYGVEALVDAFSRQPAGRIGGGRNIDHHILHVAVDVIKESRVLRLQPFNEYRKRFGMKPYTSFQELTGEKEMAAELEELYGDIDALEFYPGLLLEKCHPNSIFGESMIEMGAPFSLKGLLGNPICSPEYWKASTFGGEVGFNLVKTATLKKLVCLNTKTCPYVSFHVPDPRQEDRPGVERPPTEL
Procedure: (§1) The compounds’ abilities were evaluated in vitro to inhibit ovine COX-1 and human recombinant COX-2 isozymes using ELISA [46].

[2] = biological target: T2, human recombinant COX-2 (Homo sapiens, UniProt P35354); test: COX-2 inhibition, ELISA kit; type: biochemical
T2 construct: purchased Cayman Chemical Item No. 560131
T2 sequence (P35354 18-604): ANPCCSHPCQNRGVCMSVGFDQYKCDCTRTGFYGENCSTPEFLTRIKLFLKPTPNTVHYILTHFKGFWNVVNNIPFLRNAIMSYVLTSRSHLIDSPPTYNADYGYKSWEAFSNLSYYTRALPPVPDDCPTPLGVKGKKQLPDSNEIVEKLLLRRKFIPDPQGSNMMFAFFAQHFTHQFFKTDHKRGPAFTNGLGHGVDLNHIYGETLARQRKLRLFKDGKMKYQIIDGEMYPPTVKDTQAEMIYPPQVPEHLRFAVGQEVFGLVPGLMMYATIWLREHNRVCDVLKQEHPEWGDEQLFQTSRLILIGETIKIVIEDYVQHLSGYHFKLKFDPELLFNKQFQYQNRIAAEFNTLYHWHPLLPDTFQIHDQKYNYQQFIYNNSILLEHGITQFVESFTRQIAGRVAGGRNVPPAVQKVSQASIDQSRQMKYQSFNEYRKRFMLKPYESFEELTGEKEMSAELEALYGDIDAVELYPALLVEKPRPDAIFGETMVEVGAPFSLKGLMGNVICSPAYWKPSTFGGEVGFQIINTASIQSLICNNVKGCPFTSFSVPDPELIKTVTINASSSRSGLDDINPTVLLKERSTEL
Procedure: as §1

[3] = system: COX-1; test: Western blotting of COX-1
[4] = system: fibroblast cells; test: MTT test, cytotoxicity; type: cell-based; settings: 24 h, read-out: IC50 against fibroblast cells
Procedure: The cytotoxicity of the IA was investigated during 24 h at various concentrations against fibroblast cell lines using the MTT test. […].
The MTT Reagent was purchased from Biospes (Biospes, China, Cat n#BAR1005-1), and used according to the manufacturer’s instructions. Twenty-four hours prior to the MTT experiment, breast cancer cell lines (MCF-7 Cell Line) were seeded at a concentration of 5 × 10^4 cells per well in 96-well microplates to facilitate microplate adherence. Various agent concentrations were administered to the cultured cells. The cells were treated with 10 μL of MTT solution, and 100 μL of serum-free medium was added to every well. The plate was kept at 37 °C for 4 h in a CO2 incubator. Then, each well received 100 μL of formazan diluent buffer. The plate was incubated at 37 °C for the entire night after being wrapped in foil and given a 15-min orbital shake. An ELISA plate reader (Stat Fax 2200, Awareness Technologies, Palm City, FL, USA) was used to measure color absorbance in the OD range of 450–630 nm.
For every sample, the mean of the three readings was computed. Cell survival was calculated at the very end using the following equation:(1) % of cell viability= Asample/Acontrol×100
Acontrol is the absorbance of the cell culture after treatment with formazan buffer and MTT without added any drug. […]

[5] = Solubility in different solvents; type: physicochemical; settings: qualitative

Structure (SMILES) | IC50 [1] | COX-2 S.I. ([2]; Selectivity index (COX-1 IC50/COX-2 IC50)) | IC50 ([2]; average of three determinations) | IC50 [3] | IC50 ([4]; MTT test) | Solubility in solvents [5] | melting point | IC50 [4]
CC(=O)CC(C)=NNC(=O)C(C)c1ccc(CC(C)C)cc1 (stereo not drawn) [IA, (E)-2-(4-isobutylphenyl)-N′-(4-oxopentan-2-ylidene) propane hydrazide] | 10.2 µM | 2.8 | 3.6 µM | 0.946 µM | 3.43 µM | soluble in alcohols, DMSO, and DMF | 135 °C | 
CC(C)Cc1ccc(C(C)C(=O)O)cc1 (stereo not drawn) [Ibuprofen, reference compound] |  |  |  | […] |  |  |  | 31.4 µM

Reference: article PMC10971055 (International Journal of Molecular Sciences, 2024)
